Test results as given in PMC9395446, “First-in-human phase 1/1b study to evaluate sitravatinib in patients with advanced solid tumors” (Investigational New Drugs, 2022).

Test: Safety in phase 1/1b study (DLTs, TRAEs, TEAEs; CTCAE v4.03)
Type: in vivo, human
Excerpt: Safety assessments included evaluation of DLTs, AEs, physical examinations, vital sign measurements, electrocardiogram recordings and laboratory tests.
A DLT was defined as a grade ≥ 4 hematologic abnormality lasting ≥ 4 days; grade 3 thrombocytopenia with clinically significant bleeding; febrile neutropenia; clinically significant grade ≥ 3 non-hematologic AEs not related to underlying malignancy; intolerable grade 2 AEs; or toxicity resulting in an inability to deliver 80% of the dose during the first treatment cycle.
The safety population included all patients who received ≥ 1 dose of sitravatinib. […] The PK evaluable population included all patients with sufficient concentration-time data for PK parameter evaluation. The modified intent-to-treat (mITT) population included all phase 1b patients who received ≥ 1 dose of study drug.

## COCCNCc1ccc(-c2cc3nccc(Oc4ccc(NC(=O)C5(C(=O)Nc6ccc(F)cc6)CC5)cc4F)c3s2)nc1 [sitravatinib, Sitravatinib]
Overall
  Hypothyroidism TRAE, grade ≥3: 0 n (%)
  Infections and infestations TEAE, any grade: 74 (38.3) n (%)
  Infections and infestations TEAE, grade ≥3: 24 (12.4) n (%)
  Injury, poisoning, procedural complications TEAE, any grade: 35 (18.1) n (%)
  Injury, poisoning, procedural complications TEAE, grade ≥3: 2 (1.0) n (%)
  Investigations TEAE, any grade: 116 (60.1) n (%)
  Investigations TEAE, grade ≥3: 36 (18.7) n (%)
  Lipase increased TEAE, any grade: 26 (13.5) n (%)
  Lipase increased TEAE, grade ≥3: 14 (7.3) n (%)
  Metabolism and nutrition disorders TEAE, any grade: 130 (67.4) n (%)
  Metabolism and nutrition disorders TEAE, grade ≥3: 41 (21.2) n (%)
  Musculoskeletal and connective tissue disorders TEAE, any grade: 103 (53.4) n (%)
  Musculoskeletal and connective tissue disorders TEAE, grade ≥3: 10 (5.2) n (%)
  Nausea TEAE, any grade: 81 (42.0) n (%)
  Nausea TEAE, grade ≥3: 8 (4.1) n (%)
  Nausea TRAE, any grade: 58 (30.1) n (%)
  Nausea TRAE, grade ≥3: 5 (2.6) n (%)
  Neoplasms benign, malignant, unspecified TEAE, any grade: 24 (12.4) n (%)
  Neoplasms benign, malignant, unspecified TEAE, grade ≥3: 19 (9.8) n (%)
  Nervous system disorders TEAE, any grade: 92 (47.7) n (%)
  Nervous system disorders TEAE, grade ≥3: 8 (4.1) n (%)
  PPE syndrome TEAE, any grade: 41 (21.2) n (%)
  PPE syndrome TEAE, grade ≥3: 11 (5.7) n (%)
  PPE syndrome TRAE, any grade: 39 (20.2) n (%)
  PPE syndrome TRAE, grade ≥3: 11 (5.7) n (%)
  Pain in extremity TEAE, any grade: 21 (10.9) n (%)
  Pain in extremity TEAE, grade ≥3: 2 (1.0) n (%)
  Proteinuria TEAE, any grade: 26 (13.5) n (%)
  Proteinuria TEAE, grade ≥3: 2 (1.0) n (%)
  Proteinuria TRAE, any grade: 22 (11.4) n (%)
  Proteinuria TRAE, grade ≥3: 2 (1.0) n (%)
  Psychiatric disorders TEAE, any grade: 39 (20.2) n (%)
  Psychiatric disorders TEAE, grade ≥3: 4 (2.1) n (%)
  Rash TEAE, any grade: 26 (13.5) n (%)
  Rash TEAE, grade ≥3: 2 (1.0) n (%)
  Rash TRAE, any grade: 21 (10.9) n (%)
  Rash TRAE, grade ≥3: 2 (1.0) n (%)
  Renal and urinary disorders TEAE, any grade: 51 (26.4) n (%)
  Renal and urinary disorders TEAE, grade ≥3: 6 (3.1) n (%)
  Respiratory, thoracic and mediastinal disorders TEAE, any grade: 121 (62.7) n (%)
  Respiratory, thoracic and mediastinal disorders TEAE, grade ≥3: 21 (10.9) n (%)
  Serious TEAE: 79 (40.9) n (%)
  Serious TRAE: 30 (15.5) n (%)
  Skin and subcutaneous tissue disorders TEAE, any grade: 109 (56.5) n (%)
  Skin and subcutaneous tissue disorders TEAE, grade ≥3: 15 (7.8) n (%)
  Stomatitis TEAE, any grade: 29 (15.0) n (%)
  Stomatitis TEAE, grade ≥3: 2 (1.0) n (%)
  Stomatitis TRAE, any grade: 28 (14.5) n (%)
  Stomatitis TRAE, grade ≥3: 2 (1.0) n (%)
  TEAE grade ≥3: 145 (75.1) n (%)
  TEAE leading to death: 21 (10.9) n (%)
  TEAE leading to discontinuation: 41 (21.2) n (%)
  TEAE leading to treatment modification: 133 (68.9) n (%)
  TRAE grade ≥3: 103 (53.4) n (%)
  TRAE leading to death: 1 (0.5) n (%)
  TRAE leading to discontinuation: 26 (13.5) n (%)
  TRAE leading to treatment modification: 120 (62.2) n (%)
  UTI TEAE, any grade: 23 (11.9) n (%)
  UTI TEAE, grade ≥3: 6 (3.1) n (%)
  Vascular disorders TEAE, any grade: 106 (54.9) n (%)
  Vascular disorders TEAE, grade ≥3: 50 (25.9) n (%)
  Vomiting TEAE, any grade: 61 (31.6) n (%)
  Vomiting TEAE, grade ≥3: 11 (5.7) n (%)
  Vomiting TRAE, any grade: 46 (23.8) n (%)
  Vomiting TRAE, grade ≥3: 5 (2.6) n (%)
  Weight decreased TEAE, any grade: 42 (21.8) n (%)
  Weight decreased TEAE, grade ≥3: 3 (1.6) n (%)
  Weight decreased TRAE, any grade: 27 (14.0) n (%)
  Weight decreased TRAE, grade ≥3: 2 (1.0) n (%)
Phase 1
  ALT increased TEAE, any grade: 4 (12.5) n (%)
  ALT increased TEAE, grade ≥3: 1 (3.1) n (%)
  ALT increased TRAE, any grade: 2 (6.3) n (%)
  ALT increased TRAE, grade ≥3: 0 n (%)
  AST increased TEAE, any grade: 5 (15.6) n (%)
  AST increased TEAE, grade ≥3: 1 (3.1) n (%)
  AST increased TRAE, any grade: 2 (6.3) n (%)
  AST increased TRAE, grade ≥3: 0 n (%)
  Abdominal pain TEAE, any grade: 4 (12.5) n (%)
  Abdominal pain TEAE, grade ≥3: 1 (3.1) n (%)
